Reference: patent publication US20220220152A1, “BIVALENT ANTAGONISTS OF INHIBITORS OF APOPTOSIS PROTEINS” (Hepagene Therapeutics (HK) Limited, priority 2019, published 2022)

Experiments:
[1] = biological target: T1, XIAP-BIR3 (Homo sapiens, UniProt P98170); assay: XIAP-BIR3 fluorescence polarization binding assay; conditions: FP, probe AbuRPFK-5FAM (SM5F) 5 nM, XIAP-BIR3 40 nM, 60 min at 25° C.
T1 construct: XIAP-BIR3; purchased Reaction Biology APT-11-374
Description: (§1) IAPs are one main cause of cancer development and may result from overexpression of anti-apoptotic proteins. This protocol establishes three binding assays for […] Bir3 domain, cIAP1 and cIAP2 using FP (fluorescence polariation) technology. The fluorescence probe used is a synthetic peptide conjugated to 5-carboxyfluorescein (AbuRPFK-5FAM). The fluorescence polarization value (mP) was detected by Envision, which was used to reflect the binding degree of protein and fluorescent marker.
(§2) • a. Prepare 100 times of the final cpd concentration in appropriate tube and transfer 5 uL cpd to 45 μL 1× reaction buffer with 10% DMSO • b. The final reference cpd concentration is 10000, 3333.3, 1111.1, 370.4, 123.4, 41.2, 13.7, 4.57, 1.52, 0.51, 0.17 and 0 nM. So the 100 times of the concentration is 1000, 333.3, 111.1, 37.04, 12.34, 4.12, […], 0.15, 0.05, 0.017 and 0 μM. The final test cpds concentration is 3333.3, 1111.1, 370.4, 123.4, 41.2, 13.7, 4.57, 1.52, 0.51, 0.17, 0.057 and 0 nM. So the 100 times of the concentration is 333.3, 111.1, 37.04, 12.34, 4.12, […], 0.15, 0.05, 0.017, 0.0057 and […] • c. Add 8 μL/well each dose enzyme to 384 wen microplate (ProxiPlate-384 F Plus, 6008260) using multichannel pipette, prepared in Table 3. • d. Centrifuge at 1000 rpm • e. Add 2 μL/well cpd to 384 well microplate (ProxiPlate-384 F Plus, 6008260) using multichannel pipette, prepared in step a). • f. Centrifuge at 1000 rpm RT, 15 min. • g Start the assay by adding 10 uL/well substrate (prepared in Table 4) to the same 384 wen microplate using multichannel pipette. • h. Centrifuge at 1000 rpm. • i. Cover the assay plate and incubate for 60 min at 25° C. • j. Read on Envision 2104 for mP and plot the IC50s with mP values. • k. Data analysis: IC50s were determined based on a non-linear regression analysis of data collected.

[2] = biological target: T2, cIAP2-BIR3 (Homo sapiens, UniProt Q13489); assay: cIAP2-BIR3 fluorescence polarization binding assay; conditions: FP, probe AbuRPFK-5FAM (SM5F) 5 nM, cIAP2-BIR3 80 nM, 60 min at 25° C.
T2 construct: cIAP2-BIR3; purchased Reaction Biology APT-11-372
Description: as §1, §2

[3] = biological target: T3, cIAP1-BIR3 (Homo sapiens, UniProt Q13490); assay: cIAP1-BIR3 fluorescence polarization binding assay; conditions: FP, probe AbuRPFK-5FAM (SM5F) 5 nM, cIAP1-BIR3 15 nM, 60 min at 25° C.
T3 construct: cIAP1-BIR3; purchased Reaction Biology APT-11-370
Description: as §1, §2

T3 sequence (Q13490 253-363 limits assumed): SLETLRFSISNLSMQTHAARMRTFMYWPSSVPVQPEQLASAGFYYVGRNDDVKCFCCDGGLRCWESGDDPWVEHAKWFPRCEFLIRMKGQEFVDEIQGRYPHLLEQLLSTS
T2 sequence (Q13489 238-349 limits assumed): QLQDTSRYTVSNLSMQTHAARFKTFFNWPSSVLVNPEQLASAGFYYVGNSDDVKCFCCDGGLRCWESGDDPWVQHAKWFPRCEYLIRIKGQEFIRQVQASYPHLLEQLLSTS
T1 sequence (P98170 241-356 limits assumed): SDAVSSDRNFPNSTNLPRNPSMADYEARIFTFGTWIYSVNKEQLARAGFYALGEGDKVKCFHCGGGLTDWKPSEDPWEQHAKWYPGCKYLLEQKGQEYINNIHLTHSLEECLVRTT

Row | IC50 [1] | IC50 [2] | IC50 [3] | Structure (SMILES)
1 | 0.01 to 0.1 µM | 0.01 to 0.1 µM | 0.001 to 0.01 µM | CC[C@H](NC(=O)[C@H](C)NC)C(=O)N1CCC[C@H]1C(=O)N[C@@H]1CCOc2c(-c3cccc4c3OCC[C@H]4NC(=O)[C@@H]3CCCN3C(=O)[C@H](CC)NC(=O)[C@H](C)NC)cccc21 [Compound V-B, (2S)-1-[(2S)-2-[(2S)-2-(methylamino)propanamido]butanoyl]-N-[1(4R)-8-[(4R)-4-[(2S)-1-[(2S)-2-[(2S)-2-(methylamino)propanamido]butanoyl]pyrrolidine-2-amido]-3,4-dihydro-2H-1-benzopyran-8-yl]-3,4-dihydro-2H-1-benzopyran-4-yl]pyrrolidine-2-carboxamide]
2 | 0.1 to 1 µM | 0.1 to 1 µM | 0.001 to 0.01 µM | CN[C@@H](C)C(=O)N[C@H](C(=O)N1CCC[C@H]1C(=O)N[C@@H]1CCCc2c(OCc3ccc(COc4cccc5c4CCC[C@H]5NC(=O)[C@@H]4CCCN4C(=O)[C@@H](NC(=O)[C@H](C)NC)C4CCCCC4)cc3)cccc21)C1CCCCC1 [Compound I-F, (2S)-1-[(2S)-2-cyclohexyl-2-[(2S)-2-(methylamino)propanamido]acetyl]-N-[(1R)-5-[[4-([[(5R)-5-[(2S)-1-[(2S)-2-cyclohexyl-2-[(2S)-2-(methylamino)propanamido]acetyl]pyrolidine-2-amido]-5,6,7,8-tetrahydronaphthalen-1-yl]oxy]methyl)phenyl]methoxy]-1,2,3,4-tetrahydronaphthalen-1-yl]pyrrolidine-2-carboxamide]
3 |  |  | 0.001 to 0.01 µM | CN[C@@H](C)C(=O)N[C@H](C(=O)N1CCC[C@H]1C(=O)N[C@@H]1CCCc2c1cccc2N1CCN(c2cccc3c2CCC[C@H]3NC(=O)[C@@H]2CCCN2C(=O)[C@@H](NC(=O)[C@H](C)NC)C(C)(C)C)CC1)C(C)(C)C [Compound VIII-D, (2S,2′S)—N,N′-((1R,1′R)-piperazine-1,4-diylbis(1,2,3,4-tetrahydronaphthalene-5,1-diyl))bis(1-((S)-3,3-dimethyl-2-((S)-2-(methylamino)propanamido)butanoyl)pyrolidine-2-carboxamide)]
4 |  |  | 0.001 to 0.01 µM | CN[C@@H](C)C(=O)N[C@H](C(=O)N1CCC[C@H]1C(=O)N[C@@H]1CCCc2c1cccc2N1CCN(c2cccc3c2CCC[C@H]3NC(=O)[C@@H]2CCCN2C(=O)[C@@H](NC(=O)[C@H](C)NC)C(C)C)CC1)C(C)C [VIII-F, (2S,2'S)—N,N′-((1R,1′R)-piperazine-1,4-diylbis(1,2,3,4-tetrahydonaphthalene-5,1-diyl))bis(1-(methyl-L-alanyl-L-valyl)pyrrolidine-2-carboxamide)]
5 |  |  | 0.001 to 0.01 µM | CN[C@@H](C)C(=O)N[C@H](C(=O)N1CCC[C@H]1C(=O)N[C@@H]1CCCc2c1cccc2N1CCN(c2cccc3c2CCC[C@H]3NC(=O)[C@@H]2CCCN2C(=O)[C@@H](NC(=O)[C@H](C)NC)C2CCCCC2)CC1)C1CCCCC1 [Compound VIII-C, (2S,2'S)—N,N′-((1R,1′R)-piperazine-1,4-diylbis(1,2,3,4-tetrahydronaphthalene-5,1-diyl))bis(1-((S)-2-cyclohexyl-2-((S)-2-(methylamino)propanamido)acetyl)pyrrolidine-2-carboxamide)]
6 |  |  | 0.001 to 0.01 µM | CC[C@H](NC(=O)[C@H](C)NC)C(=O)N1CCC[C@H]1C(=O)N[C@@H]1CCCc2c1cccc2N1CCN(c2cccc3c2CCC[C@H]3NC(=O)[C@@H]2CCCN2C(=O)[C@H](CC)NC(=O)[C@H](C)NC)CC1 [VIII-E, (2S,2'S)—N,N′-((1R,1′R)-piperazine-1,4-diylbis(1,2,3,4-tetrahydonaphthalene-5,1-diyl))bis(1-((S)-2-((S)-2-(methylamino)propanamido)butanoyl)pyrrolidine-2-carboxamide)]
